# Test system: SC and TA inputs to CA1
# Experiment: Field potential recordings and LTP, acute hippocampal slices of injected mice
# Assay type: in vivo, wild-type mice
# Method: Electrophysiology. Transverse [for Schaffer collateral (SC) input studies] or horizontal [for temporammonic (TA) input studies] hippocampal slices (400-μm thick) were prepared from adult mice. Slices were made using ice-cold dissection buffer (in mM: 212.7 sucrose, 2.6KCl, 1.23NaH2PO4, 10 dextrose, 3MgCl2 and 1CaCl2; 5% CO2/95% O2), and recordings were done in a submersion-type chamber perfused with artificial cerebrospinal fluid (ACSF, in mM: 124NaCl, 5KCl, 1.25NaH2PO4, 26NaHCO3, 10 dextrose, 1.5MgCl2, and 2.5CaCl2; 5% CO2/95% O2, 29.5-30.5° C., 2 ml/min). For field potential recordings, synaptic responses were evoked using 0.2 ms duration pulses delivered through a bipolar glass stimulating electrode at 0.0333 Hz. A train of TBS consisted of a burst of 4 pulses at 100 Hz repeated 10 times at 5 Hz. For 4× TBS, 4 trains of TBS were given at 10 sec inter-train-intervals. For whole cell recordings, slices were transferred to a submersion-type recording chamber mounted on a fixed stage of an upright microscope (E600 FN; Nikon, Tokyo, Japan) with IR oblique illumination. […]. These neurons were patched using a whole cell patch pipette (tip resistance 3-5 MΩ), which was filled with internal solution (in mM: 120 Cs-methanesulfonate, 5MgCl2, 8NaCl, 1 EGTA, 10 HEPES, 2 Mg.ATP, 0.5Na3GTP and 1 QX-314; pH 7.3, 280-290 mOsm). Recording was initiated 2-3 min after break-in, and each cell was recorded for 10-15 min to collect enough mEPSCs for analysis. The Axon patch-clamp amplifier 700B (Molecular Devices, Union City, Calif.) was used for voltage-clamp recordings. Cells were held at −70 mV, and the recorded mEPSC data were digitized at 10 kHz with a data acquisition board (National Instruments, Austin, Tex.) and acquired through custom-made programs using the Igor Pro software (WaveMetrics, Lake Oswego, Oreg.). The MiniAnalysis program (Synaptosoft, Decatur, Ga.) was used to analyze the acquired mEPSCs. The threshold for detecting mEPSCs was set at three times the root mean square (RMS) noise. […] Recordings were excluded from analysis if the RMS noise was <2, the series resistance was […], and input resistance was >100 MΩ. To minimize the impact of dendritic filtering, we adopted the standard approach of excluding mEPSCs with rise time >3 ms, as well as cells showing a negative correlation between mEPSC amplitude and rise time (Rall, 1969). Only about 4% of the total recorded cells (at most 1 cell per experimental group) were excluded due to negative correlation between mEPSC rise and amplitude. One hundred consecutive mEPSCs that met the rise time criteria were analyzed from each cell. AMPAR- and NMDAR-mediated currents were measured at −70 and +40 mV, respectively. AMPAR mediated EPSC amplitudes were measured at the peak of the current at −70 mV. NMDAR mediated EPSC amplitudes were measured 100 ms after the stimulation artifact. Data are means±SE. Student's t-test was used for two-group comparisons. For all statistical tests, P<0.05 was considered statistically significant.
# Therefore, we examined whether improved cognitive performance following BTA-EG4 treatment is associated with altered synaptic function and plasticity. We conducted electrophysiology experiments in an acute hippocampal slice preparation from wild-type mice injected with BTA-EG4 (30 mg/kg, i.p.) or control solution (10% DMSO, i.p) for 2 weeks. […] Long-term potentiation (LTP) was either normal or reduced, depending on the induction protocol (FIGS. 3C-3D). […] There was also not a change in presynaptic function (FIG. 3I).
# [1] = SC inputs to CA1, 30 mg/kg i.p., 2 weeks
substance,measurement,setting,value
BTA-EG4,summation of synaptic responses during the LTP induction protocol,SC inputs to CA1,reduced
same,magnitude of LTP,"SC inputs to CA1, induced by 1× TBS",No difference
same,magnitude of LTP,"SC inputs to CA1, induced by 4× TBS",reduction
same,basal synaptic transmission,[1],did not alter
same,presynaptic function,[1],did not alter
same,presynaptic function,TA inputs to CA1,not a change
same,response summation during the induction protocol,TA inputs to CA1,absence of a change
same,synaptic transmission normalized to presynaptic fiber volley amplitude,TA inputs to CA1,no difference
same,TA-LTP,"TA inputs to CA1, at 1 h post-LTP, CTRL 120±2.1%",109±1.2%
same,ability to recruit presynaptic axons per stimulation intensity,"TA inputs to CA1, 30 mg/kg i.p.",reduced

# Reference: patent publication US20160000762A1, “IMPROVING COGNITIVE FUNCTION” (THE REGENTS OF THE UNIVERSITY OF CALIFORNIA, priority 2013, published 2016)
